Assay results taken from US6284269A, “Pharmaceutical compositions of meloxicam with improved solubility and bioavailability” (Hexal AG, priority 1997, dated 2001).
Several values for one entry are separate records, joined by “and”; a condition that tells them apart may be missing. Equal entries are not always repeated.

Assays:
[1] = In vitro dissolution of cyclodextrin based meloxicam compositions under non-sink conditions (standard method); format: physicochemical
Procedure: The following standard method was used for the determination of the solution rate of the drug compositions: In vitro dissolution properties of the cyclodextrin based meloxicam compositions were studied under non-sink conditions in two different buffer systems, pH 1.3 and 7.6, respectively and in deionised water (pH=6.6) at 37° C.
(§1) The stirring rate was 160 r.p.m. […] Sampling time intervals were 5, 10, 15, 30, 45 and 60 minutes.

[2] = In vitro rate of dissolution of meloxicam composition at pH 1.2 (table 9); format: physicochemical; conditions: 37° C., 60 min
Procedure: The following standard method was used for the determination of the solution rate of the drug compositions: In vitro dissolution properties of the cyclodextrin based […], respectively and in deionised water (pH=6.6) at 37° C.
as §1

Dissolved meloxicam in solution ([1]; deionised water (pH = 6.6), 37° C., 5 min): 23 µg/mL | Dissolved meloxicam in solution ([1]; deionised water (pH = 6.6), 37° C., 10 min): 148 µg/mL | Dissolved meloxicam in solution ([1]; deionised water (pH = 6.6), 37° C., 15 min): 232 µg/mL | Dissolved meloxicam in solution ([1]; deionised water (pH = 6.6), 37° C., 30 min): 390 µg/mL | Dissolved meloxicam in solution ([1]; deionised water (pH = 6.6), 37° C., 45 min): 415 µg/mL | Dissolved meloxicam in solution ([1]; deionised water (pH = 6.6), 37° C., 60 min): 475 µg/mL | Dissolved meloxicam in solution ([1]; pH 1.3, 37° C., 5 min (tables 4, 11, 13)): 0.4 µg/mL and 0.30 µg/mL | Dissolved meloxicam in solution ([1]; pH 1.3, 37° C., 5 min, free meloxicam 130 mg, composition 1300 mg (table 7)): 0.45 µg/mL | Dissolved meloxicam in solution ([1]; pH 1.3, 37° C., 5 min, free meloxicam 130 mg, composition 1500 mg (tables 5, 6)): 0.45 µg/mL | Dissolved meloxicam in solution ([1]; pH 1.3, 37° C., 10 min (tables 4, 11, 13)): 0.6 µg/mL and 0.38 µg/mL | Dissolved meloxicam in solution ([1]; pH 1.3, 37° C., 10 min, free meloxicam 130 mg, composition 1300 mg (table 7)): 0.62 µg/mL | Dissolved meloxicam in solution ([1]; pH 1.3, 37° C., 10 min, free meloxicam 130 mg, composition 1500 mg (tables 5, 6)): 0.62 µg/mL | Dissolved meloxicam in solution ([1]; pH 1.3, 37° C., 15 min (tables 4, 11, 13)): 0.7 µg/mL and 0.44 µg/mL | Dissolved meloxicam in solution ([1]; pH 1.3, 37° C., 15 min, free meloxicam 130 mg, composition 1300 mg (table 7)): 0.67 µg/mL | Dissolved meloxicam in solution ([1]; pH 1.3, 37° C., 15 min, free meloxicam 130 mg, composition 1500 mg (tables 5, 6)): 0.67 µg/mL | Dissolved meloxicam in solution ([1]; pH 1.3, 37° C., 30 min (tables 4, 11, 13)): 0.7 µg/mL and 0.56 µg/mL | Dissolved meloxicam in solution ([1]; pH 1.3, 37° C., 30 min, free meloxicam 130 mg, composition 1300 mg (table 7)): 0.74 µg/mL | Dissolved meloxicam in solution ([1]; pH 1.3, 37° C., 30 min, free meloxicam 130 mg, composition 1500 mg (tables 5, 6)): 0.74 µg/mL | Dissolved meloxicam in solution ([1]; pH 1.3, 37° C., 45 min (tables 4, 11, 13)): 0.7 µg/mL and 0.59 µg/mL | Dissolved meloxicam in solution ([1]; pH 1.3, 37° C., 45 min, free meloxicam 130 mg, composition 1300 mg (table 7)): 0.73 µg/mL | Dissolved meloxicam in solution ([1]; pH 1.3, 37° C., 45 min, free meloxicam 130 mg, composition 1500 mg (tables 5, 6)): 0.73 µg/mL | Dissolved meloxicam in solution ([1]; pH 1.3, 37° C., 60 min (tables 4, 11, 13)): 0.6 µg/mL and 0.65 µg/mL | Dissolved meloxicam in solution ([1]; pH 1.3, 37° C., 60 min, free meloxicam 130 mg, composition 1300 mg (table 7)): 0.67 µg/mL | Dissolved meloxicam in solution ([1]; pH 1.3, 37° C., 60 min, free meloxicam 130 mg, composition 1500 mg (tables 5, 6)): 0.67 µg/mL | Dissolved meloxicam in solution ([1]; pH 7.6, 37° C., 5 min (tables 4, 11)): 38 µg/mL | Dissolved meloxicam in solution ([1]; pH 7.6, 37° C., 5 min, free meloxicam 130 mg, composition 1300 mg (table 7)): 38 µg/mL | Dissolved meloxicam in solution ([1]; pH 7.6, 37° C., 5 min, free meloxicam 130 mg, composition 1500 mg (tables 5, 6)): 38 µg/mL | Dissolved meloxicam in solution ([1]; pH 7.6, 37° C., 10 min (tables 4, 11)): 188 µg/mL and 218 µg/mL | Dissolved meloxicam in solution ([1]; pH 7.6, 37° C., 10 min, free meloxicam 130 mg, composition 1300 mg (table 7)): 218 µg/mL | Dissolved meloxicam in solution ([1]; pH 7.6, 37° C., 10 min, free meloxicam 130 mg, composition 1500 mg (tables 5, 6)): 218 µg/mL | Dissolved meloxicam in solution ([1]; pH 7.6, 37° C., 15 min (tables 4, 11)): 320 µg/mL | Dissolved meloxicam in solution ([1]; pH 7.6, 37° C., 15 min, free meloxicam 130 mg, composition 1300 mg (table 7)): 320 µg/mL | Dissolved meloxicam in solution ([1]; pH 7.6, 37° C., 15 min, free meloxicam 130 mg, composition 1500 mg (tables 5, 6)): 320 µg/mL | Dissolved meloxicam in solution ([1]; pH 7.6, 37° C., 30 min (tables 4, 11)): 390 µg/mL | Dissolved meloxicam in solution ([1]; pH 7.6, 37° C., 30 min, free meloxicam 130 mg, composition 1300 mg (table 7)): 390 µg/mL | Dissolved meloxicam in solution ([1]; pH 7.6, 37° C., 30 min, free meloxicam 130 mg, composition 1500 mg (tables 5, 6)): 390 µg/mL | Dissolved meloxicam in solution ([1]; pH 7.6, 37° C., 45 min (tables 4, 11)): 485 µg/mL | Dissolved meloxicam in solution ([1]; pH 7.6, 37° C., 45 min, free meloxicam 130 mg, composition 1300 mg (table 7)): 485 µg/mL | Dissolved meloxicam in solution ([1]; pH 7.6, 37° C., 45 min, free meloxicam 130 mg, composition 1500 mg (tables 5, 6)): 485 µg/mL | Dissolved meloxicam in solution ([1]; pH 7.6, 37° C., 60 min (tables 4, 11)): 550 µg/mL | Dissolved meloxicam in solution ([1]; pH 7.6, 37° C., 60 min, free meloxicam 130 mg, composition 1300 mg (table 7)): 550 µg/mL | Dissolved meloxicam in solution ([1]; pH 7.6, 37° C., 60 min, free meloxicam 130 mg, composition 1500 mg (tables 5, 6)): 550 µg/mL | meloxicam (dissolved) [2]: 0.8 µg/mL
Compound: Cc1cnc(NC(=O)C2=C(O)c3ccccc3S(=O)(=O)N2C)s1 [free meloxicam, meloxicam]
